# Calls of active or inactive are those of the source. The rule behind the calls is not given here.
# System: CCRIS mutagenicity, Ames/micronucleus/aberration tests
# Experiment: CCRIS mutagenicity studies
# [1] = Test System: AMES SALMONELLA TYPHIMURIUM, Strain/Indicator: TA98, Metabolic Activation: NONE, Method: PREINCUBATION
# [2] = Test System: AMES SALMONELLA TYPHIMURIUM, Strain/Indicator: TA100, Metabolic Activation: NONE, Method: PREINCUBATION
# [3] = Test System: AMES SALMONELLA TYPHIMURIUM, Strain/Indicator: TA98, Metabolic Activation: RAT, LIVER, S-9, AROCLOR 1254, Method: PREINCUBATION
# [4] = Test System: AMES SALMONELLA TYPHIMURIUM, Strain/Indicator: TA100, Metabolic Activation: NONE, Method: STANDARD PLATE
# [5] = Test System: AMES SALMONELLA TYPHIMURIUM, Strain/Indicator: TA100, Metabolic Activation: RAT, LIVER, S-9, AROCLOR 1254, Method: PREINCUBATION
structure (smiles),measurement,setting,value
CC(C)NCC(O)c1ccc(NS(C)(=O)=O)cc1 (stereo unspecified),mutagenic call,"Test System: AMES SALMONELLA TYPHIMURIUM, Strain/Indicator: TA98, Metabolic Activation: NONE",inactive; negative
same,mutagenic call,"Test System: AMES SALMONELLA TYPHIMURIUM, Strain/Indicator: TA98, Metabolic Activation: RAT, LIVER, S-9, AROCLOR 1254",inactive; negative
same,mutagenic call,"Test System: AMES SALMONELLA TYPHIMURIUM, Strain/Indicator: TA100, Metabolic Activation: NONE",inactive; negative
same,mutagenic call,"Test System: AMES SALMONELLA TYPHIMURIUM, Strain/Indicator: TA100, Metabolic Activation: RAT, LIVER, S-9, AROCLOR 1254",inactive; negative
same,mutagenic call,"Test System: AMES SALMONELLA TYPHIMURIUM, Strain/Indicator: TA1535, Metabolic Activation: NONE",inactive; negative
same,mutagenic call,"Test System: AMES SALMONELLA TYPHIMURIUM, Strain/Indicator: TA1535, Metabolic Activation: RAT, LIVER, S-9, AROCLOR 1254",inactive; negative
same,mutagenic call,"Test System: AMES SALMONELLA TYPHIMURIUM, Strain/Indicator: TA1537, Metabolic Activation: NONE",inactive; negative
same,mutagenic call,"Test System: AMES SALMONELLA TYPHIMURIUM, Strain/Indicator: TA1537, Metabolic Activation: RAT, LIVER, S-9, AROCLOR 1254",inactive; negative
same,mutagenic call,"Test System: UDS HUMAN HEPATOCYTES, Strain/Indicator: THY INCORP, Metabolic Activation: NONE, Method: AUTORADIOGRAPHY",inactive; negative
same,mutagenic call,"Test System: UDS RAT HEPATOCYTES, Strain/Indicator: THY INCORP, Metabolic Activation: NONE, Method: AUTORADIOGRAPHY",inactive; negative
C[C@@H](O)[C@H]1C(=O)N2C(C(=O)O)=C([C@H]3CCCO3)S[C@H]12,mutagenic call,[1],inactive; negative
same,mutagenic call,"Test System: AMES SALMONELLA TYPHIMURIUM, Strain/Indicator: TA98, Metabolic Activation: S-9, Method: PREINCUBATION",inactive; negative
same,mutagenic call,[2],inactive; negative
same,mutagenic call,"Test System: AMES SALMONELLA TYPHIMURIUM, Strain/Indicator: TA100, Metabolic Activation: S-9, Method: PREINCUBATION",inactive; negative
same,mutagenic call,"Test System: AMES SALMONELLA TYPHIMURIUM, Strain/Indicator: TA1535, Metabolic Activation: NONE, Method: PREINCUBATION",inactive; negative
same,mutagenic call,"Test System: AMES SALMONELLA TYPHIMURIUM, Strain/Indicator: TA1535, Metabolic Activation: S-9, Method: PREINCUBATION",inactive; negative
same,mutagenic call,"Test System: AMES SALMONELLA TYPHIMURIUM, Strain/Indicator: TA1537, Metabolic Activation: NONE, Method: PREINCUBATION",inactive; negative
same,mutagenic call,"Test System: AMES SALMONELLA TYPHIMURIUM, Strain/Indicator: TA1537, Metabolic Activation: S-9, Method: PREINCUBATION",inactive; negative
same,mutagenic call,"Test System: E.COLI, Strain/Indicator: WP2 UVRA, Metabolic Activation: NONE, Method: PREINCUBATION",inactive; negative
same,mutagenic call,"Test System: E.COLI, Strain/Indicator: WP2 UVRA, Metabolic Activation: S-9, Method: PREINCUBATION",inactive; negative
Cc1cncc(C)n1,mutagenic call,[1],inactive; negative
same,mutagenic call,"Test System: AMES SALMONELLA TYPHIMURIUM, Strain/Indicator: TA98, Metabolic Activation: NONE, Method: STANDARD PLATE",active; positive
same,mutagenic call,[3],inactive; negative
same,mutagenic call,"Test System: AMES SALMONELLA TYPHIMURIUM, Strain/Indicator: TA98, Metabolic Activation: RAT, LIVER, S-9, AROCLOR 1254, Method: STANDARD PLATE",inactive; negative
same,mutagenic call,[2],inactive; negative
same,mutagenic call,[4],inactive; negative
same,mutagenic call,[5],inactive; negative
same,mutagenic call,"Test System: AMES SALMONELLA TYPHIMURIUM, Strain/Indicator: TA100, Metabolic Activation: RAT, LIVER, S-9, AROCLOR 1254, Method: STANDARD PLATE",inactive; negative
same,mutagenic call,"Test System: AMES SALMONELLA TYPHIMURIUM, Strain/Indicator: TA102, Metabolic Activation: NONE, Method: PREINCUBATION",inactive; negative
same,mutagenic call,"Test System: AMES SALMONELLA TYPHIMURIUM, Strain/Indicator: TA102, Metabolic Activation: RAT, LIVER, S-9, AROCLOR 1254, Method: PREINCUBATION",inactive; negative
Cn1cnc([N+](=O)[O-])c1-c1ccccc1,mutagenic call,[4],inactive; negative
CC(=O)Nc1ccc(Oc2ccc(N(O)C=O)cc2)cc1,mutagenic call,"Test System: AMES SALMONELLA TYPHIMURIUM, Strain/Indicator: TA98(1,8-DNP6), Metabolic Activation: NONE, Method: PREINCUBATION",active; positive
same,mutagenic call,"Test System: AMES SALMONELLA TYPHIMURIUM, Strain/Indicator: TA98(1,8-DNP6), Metabolic Activation: RAT, LIVER, S-9, AROCLOR 1254, Method: PREINCUBATION",active; positive
same,mutagenic call,"Test System: AMES SALMONELLA TYPHIMURIUM, Strain/Indicator: TA98(NR), Metabolic Activation: NONE, Method: PREINCUBATION",active; positive
same,mutagenic call,"Test System: AMES SALMONELLA TYPHIMURIUM, Strain/Indicator: TA98(NR), Metabolic Activation: RAT, LIVER, S-9, AROCLOR 1254, Method: PREINCUBATION",active; positive
same,mutagenic call,[1],active; positive
same,mutagenic call,[3],active; positive
same,mutagenic call,"Test System: AMES SALMONELLA TYPHIMURIUM, Strain/Indicator: TA100(NR), Metabolic Activation: NONE, Method: PREINCUBATION",active; positive
same,mutagenic call,"Test System: AMES SALMONELLA TYPHIMURIUM, Strain/Indicator: TA100(NR), Metabolic Activation: RAT, LIVER, S-9, AROCLOR 1254, Method: PREINCUBATION",active; positive
same,mutagenic call,[2],active; positive
same,mutagenic call,[5],active; positive

# Source: PubChem BioAssay AID1259407 (Chemical Carcinogenesis Research Information System (CCRIS), 2018)
